Source: the supplement of paper PMC10307832

Legend:
Test in all cases: relative viability (nuclei count vs DMSO), 5 days (fraction); higher = more cells survive
Cediranib + AZD7762 = compound: COc1cc2c(Oc3ccc4[nH]c(C)cc4c3F)ncnc2cc1OCCCN1CCCC1 [Cediranib] + NC(=O)Nc1cc(-c2cccc(F)c2)sc1C(=O)N[C@H]1CCCNC1 [AZD7762] (partner 0.2 µM)
How it was run: (§1)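 Medians of duplicate plates are given as relative viability. That measure is the nuclei count in treated wells divided by the count in vehicle wells. Counts were taken on 4× images of lung cancer cell lines in 1536-well plates, 5 days after pin-tool dosing the day after seeding with one drug alone or a fixed anchor-drug dose plus five library-drug doses (not always all listed) in √10 steps.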

Decitabine + Linsitinib = compound: Nc1ncn([C@H]2C[C@H](O)[C@@H](CO)O2)c(=O)n1 [Decitabine] + C[C@]1(O)C[C@@H](c2nc(-c3ccc4ccc(-c5ccccc5)nc4c3)c3c(N)nccn32)C1 [Linsitinib] (partner 1 µM)
How it was run: as §1

Decitabine + AZD7762 = compound: Nc1ncn([C@H]2C[C@H](O)[C@@H](CO)O2)c(=O)n1 [Decitabine] + NC(=O)Nc1cc(-c2cccc(F)c2)sc1C(=O)N[C@H]1CCCNC1 [AZD7762] (partner 0.2 µM)
How it was run: as §1

Halofuginone + Dasatinib = compound: O=C(C[C@H]1NCCC[C@@H]1O)Cn1cnc2cc(Br)c(Cl)cc2c1=O (racemic) [Halofuginone] + Cc1nc(Nc2ncc(C(=O)Nc3c(C)cccc3Cl)s2)cc(N2CCN(CCO)CC2)n1 [Dasatinib] (partner 0.075 µM)
How it was run: as §1

Cell Line: NCI-H647
- relative viability (Cediranib + AZD7762; first compound 0.04 µM): 0.498
- relative viability (Cediranib + AZD7762; first compound 0.1265 µM): 0.462
- relative viability (Cediranib + AZD7762; first compound 0.4 µM): 0.389
- relative viability (Cediranib + AZD7762; first compound 1.265 µM): 0.404
- relative viability (Cediranib + AZD7762; first compound 4 µM): 0.475
- relative viability (Decitabine + Linsitinib; first compound 0.04 µM): 0.989
- relative viability (Decitabine + Linsitinib; first compound 0.1265 µM): 0.874
- relative viability (Decitabine + Linsitinib; first compound 0.4 µM): 0.759
- relative viability (Decitabine + Linsitinib; first compound 1.265 µM): 0.234
- relative viability (Decitabine + Linsitinib; first compound 4 µM): 0.237
- relative viability (Decitabine + AZD7762; first compound 0.04 µM): 0.345
- relative viability (Decitabine + AZD7762; first compound 0.1265 µM): 0.438
- relative viability (Decitabine + AZD7762; first compound 0.4 µM): 0.247
- relative viability (Decitabine + AZD7762; first compound 1.265 µM): 0.139
- relative viability (Decitabine + AZD7762; first compound 4 µM): 0.151
- relative viability (Halofuginone + Dasatinib; first compound 0.001 µM): 0.219
- relative viability (Halofuginone + Dasatinib; first compound 0.003162 µM): 0.216
- relative viability (Halofuginone + Dasatinib; first compound 0.01 µM): 0.188
- relative viability (Halofuginone + Dasatinib; first compound 0.03162 µM): 0.171
- relative viability (Halofuginone + Dasatinib; first compound 0.1 µM): 0.099

Cell Line: NCI-H650
- relative viability (Cediranib + AZD7762; first compound 0.04 µM): 0.879
- relative viability (Cediranib + AZD7762; first compound 0.1265 µM): 0.654
- relative viability (Cediranib + AZD7762; first compound 0.4 µM): 0.953
- relative viability (Cediranib + AZD7762; first compound 1.265 µM): 0.944
- relative viability (Cediranib + AZD7762; first compound 4 µM): 1.13
- relative viability (Decitabine + Linsitinib; first compound 0.04 µM): 0.722
- relative viability (Decitabine + Linsitinib; first compound 0.1265 µM): 0.538
- relative viability (Decitabine + Linsitinib; first compound 0.4 µM): 0.298
- relative viability (Decitabine + Linsitinib; first compound 1.265 µM): 0.258
- relative viability (Decitabine + Linsitinib; first compound 4 µM): 0.32
- relative viability (Decitabine + AZD7762; first compound 0.04 µM): 0.775
- relative viability (Decitabine + AZD7762; first compound 0.1265 µM): 0.618
- relative viability (Decitabine + AZD7762; first compound 0.4 µM): 0.427
- relative viability (Decitabine + AZD7762; first compound 1.265 µM): 0.388
- relative viability (Decitabine + AZD7762; first compound 4 µM): 0.346
- relative viability (Halofuginone + Dasatinib; first compound 0.001 µM): 0.528
- relative viability (Halofuginone + Dasatinib; first compound 0.003162 µM): 0.478
- relative viability (Halofuginone + Dasatinib; first compound 0.01 µM): 0.47
- relative viability (Halofuginone + Dasatinib; first compound 0.03162 µM): 0.452
- relative viability (Halofuginone + Dasatinib; first compound 0.1 µM): 0.367

Cell Line: NCI-H727
- relative viability (Cediranib + AZD7762; first compound 0.04 µM): 0.601
- relative viability (Cediranib + AZD7762; first compound 0.1265 µM): 0.379
- relative viability (Cediranib + AZD7762; first compound 0.4 µM): 0.636
- relative viability (Cediranib + AZD7762; first compound 1.265 µM): 0.626
- relative viability (Cediranib + AZD7762; first compound 4 µM): 0.538
- relative viability (Decitabine + Linsitinib; first compound 0.04 µM): 0.303
- relative viability (Decitabine + Linsitinib; first compound 0.1265 µM): 0.232
- relative viability (Decitabine + Linsitinib; first compound 0.4 µM): 0.302
- relative viability (Decitabine + Linsitinib; first compound 1.265 µM): 0.282
- relative viability (Decitabine + Linsitinib; first compound 4 µM): 0.234
- relative viability (Decitabine + AZD7762; first compound 0.04 µM): 0.562
- relative viability (Decitabine + AZD7762; first compound 0.1265 µM): 0.588
- relative viability (Decitabine + AZD7762; first compound 0.4 µM): 0.427
- relative viability (Decitabine + AZD7762; first compound 1.265 µM): 0.462
- relative viability (Decitabine + AZD7762; first compound 4 µM): 0.574
- relative viability (Halofuginone + Dasatinib; first compound 0.001 µM): 0.417
- relative viability (Halofuginone + Dasatinib; first compound 0.003162 µM): 0.411
- relative viability (Halofuginone + Dasatinib; first compound 0.01 µM): 0.397
- relative viability (Halofuginone + Dasatinib; first compound 0.03162 µM): 0.396
- relative viability (Halofuginone + Dasatinib; first compound 0.1 µM): 0.263

Cell Line: NCI-H838
- relative viability (Cediranib + AZD7762; first compound 0.04 µM): 0.978
- relative viability (Cediranib + AZD7762; first compound 0.1265 µM): 0.934
- relative viability (Cediranib + AZD7762; first compound 0.4 µM): 0.934
- relative viability (Cediranib + AZD7762; first compound 1.265 µM): 0.896
- relative viability (Cediranib + AZD7762; first compound 4 µM): 0.975
- relative viability (Decitabine + Linsitinib; first compound 0.04 µM): 0.798
- relative viability (Decitabine + Linsitinib; first compound 0.1265 µM): 0.561
- relative viability (Decitabine + Linsitinib; first compound 0.4 µM): 0.333
- relative viability (Decitabine + Linsitinib; first compound 1.265 µM): 0.318
- relative viability (Decitabine + Linsitinib; first compound 4 µM): 0.264
- relative viability (Decitabine + AZD7762; first compound 0.04 µM): 0.74
- relative viability (Decitabine + AZD7762; first compound 0.1265 µM): 0.753
- relative viability (Decitabine + AZD7762; first compound 0.4 µM): 0.815
- relative viability (Decitabine + AZD7762; first compound 1.265 µM): 0.68
- relative viability (Decitabine + AZD7762; first compound 4 µM): 0.659
- relative viability (Halofuginone + Dasatinib; first compound 0.001 µM): 0.312
- relative viability (Halofuginone + Dasatinib; first compound 0.003162 µM): 0.307
- relative viability (Halofuginone + Dasatinib; first compound 0.01 µM): 0.339
- relative viability (Halofuginone + Dasatinib; first compound 0.03162 µM): 0.228
- relative viability (Halofuginone + Dasatinib; first compound 0.1 µM): 0.17

Cell Line: NCI-H1355
- relative viability (Cediranib + AZD7762; first compound 0.04 µM): 0.806
- relative viability (Cediranib + AZD7762; first compound 0.1265 µM): 1.08
- relative viability (Cediranib + AZD7762; first compound 0.4 µM): 0.717
- relative viability (Cediranib + AZD7762; first compound 1.265 µM): 0.668
- relative viability (Cediranib + AZD7762; first compound 4 µM): 0.714
- relative viability (Decitabine + Linsitinib; first compound 0.04 µM): 0.663
- relative viability (Decitabine + Linsitinib; first compound 0.1265 µM): 0.622
- relative viability (Decitabine + Linsitinib; first compound 0.4 µM): 0.52
- relative viability (Decitabine + Linsitinib; first compound 1.265 µM): 0.348
- relative viability (Decitabine + Linsitinib; first compound 4 µM): 0.827
- relative viability (Decitabine + AZD7762; first compound 0.04 µM): 0.442
- relative viability (Decitabine + AZD7762; first compound 0.1265 µM): 0.473
- relative viability (Decitabine + AZD7762; first compound 0.4 µM): 0.376
- relative viability (Decitabine + AZD7762; first compound 1.265 µM): 0.267
- relative viability (Decitabine + AZD7762; first compound 4 µM): 0.241
- relative viability (Halofuginone + Dasatinib; first compound 0.001 µM): 0.762
- relative viability (Halofuginone + Dasatinib; first compound 0.003162 µM): 0.764
- relative viability (Halofuginone + Dasatinib; first compound 0.01 µM): 0.727
- relative viability (Halofuginone + Dasatinib; first compound 0.03162 µM): 0.692
- relative viability (Halofuginone + Dasatinib; first compound 0.1 µM): 0.458

Cell Line: NCI-H1395
- relative viability (Cediranib + AZD7762; first compound 0.04 µM): 0.382
- relative viability (Cediranib + AZD7762; first compound 0.1265 µM): 0.404
- relative viability (Cediranib + AZD7762; first compound 0.4 µM): 0.378
- relative viability (Cediranib + AZD7762; first compound 1.265 µM): 0.402
- relative viability (Cediranib + AZD7762; first compound 4 µM): 0.392
- relative viability (Decitabine + Linsitinib; first compound 0.04 µM): 0.768
- relative viability (Decitabine + Linsitinib; first compound 0.1265 µM): 0.938
- relative viability (Decitabine + Linsitinib; first compound 0.4 µM): 0.597
- relative viability (Decitabine + Linsitinib; first compound 1.265 µM): 0.63
- relative viability (Decitabine + Linsitinib; first compound 4 µM): 0.509
- relative viability (Decitabine + AZD7762; first compound 0.04 µM): 0.379
- relative viability (Decitabine + AZD7762; first compound 0.1265 µM): 0.39
- relative viability (Decitabine + AZD7762; first compound 0.4 µM): 0.446
- relative viability (Decitabine + AZD7762; first compound 1.265 µM): 0.391
- relative viability (Decitabine + AZD7762; first compound 4 µM): 0.348
- relative viability (Halofuginone + Dasatinib; first compound 0.001 µM): 0.425
- relative viability (Halofuginone + Dasatinib; first compound 0.003162 µM): 0.469
- relative viability (Halofuginone + Dasatinib; first compound 0.01 µM): 0.426
- relative viability (Halofuginone + Dasatinib; first compound 0.03162 µM): 0.364
- relative viability (Halofuginone + Dasatinib; first compound 0.1 µM): 0.366
